Patent publication US6573262B2, “Composition and antiviral activity of substituted indoleoxoacetic piperazine derivatives” (priority 2000, dated 2003)

Tested on: HIV-1 single-round infectious reporter virus
Assay: microbe, parasite or virus in culture
Format: cell-based
Conditions: for EC50: Human immunodeficiency virus 1, HeLa-CD4/CCR5, 72 h, read-out: EC50 Group from Table 1; for inhibition at 10 µM: Human immunodeficiency virus 1, HeLa-CD4/CCR5, read-out: % Inhibition @ 10 uM

Row | SMILES | EC50 [nM] | inhibition at 10 µM [%]
1 | CS(=O)(=O)NC(=O)c1cccc2c(C(=O)C(=O)N3CCN(C(=O)c4ccccc4)CC3)c[nH]c12 [Example 61] | 1000 to 5000 | 75
2 | Cc1nc(-c2ccc(F)c3c(C(=O)C(=O)N4CCN(C(=O)c5ccccc5)C[C@H]4C)c[nH]c23)no1 [Example 178] | < 1000 | 
3 | C[C@@H]1CN(C(=O)c2ccccn2)CCN1C(=O)C(=O)c1c[nH]c2c(-c3noc(C(Cl)(Cl)Cl)n3)ccc(F)c12 [Example 187] | < 1000 | 
4 | Cc1nc(-c2ccc(F)c3c(C(=O)C(=O)N4CCN(C(=O)c5ccccc5)CC4)c[nH]c23)no1 [Example 80] | < 1000 | > 98
5 | O=C(C(=O)N1CCN(C(=O)c2ccccc2)CC1)c1c[nH]c2c(-c3nnn(Cc4ccccc4)n3)ccc(F)c12 [Example 25] | < 1000 | > 98
6 | O=C(C(=O)N1CCN(C(=O)c2ccccc2)CC1)c1c[nH]c2c(-c3cncn3Cc3ccccc3)ccc(F)c12 [Example 84] | < 1000 | 
7 | C[C@@H]1CN(C(=O)c2ccccn2)CCN1C(=O)C(=O)c1c[nH]c2c(-c3nn[nH]n3)ccc(F)c12 [Example 34] | < 1000 | > 98
8 | COc1ccc(-c2ccco2)c2[nH]cc(C(=O)C(=O)N3CCN(C(=O)c4ccccc4)CC3)c12 [Example 11] | < 1000 | > 98
9 | CNc1nc(-c2ccc(F)c3c(C(=O)C(=O)N4CCN(C(=O)c5ccccc5)CC4)c[nH]c23)no1 [Example 157] | < 1000 | 
10 | CC(C)Nc1nc(-c2ccc(F)c3c(C(=O)C(=O)N4CCN(C(=O)c5ccccc5)CC4)c[nH]c23)no1 [Example 158] | < 1000 | 
11 | O=C(Nc1ccncc1)c1ccc(F)c2c(C(=O)C(=O)N3CCN(C(=O)c4ccccc4)CC3)c[nH]c12 [Example 39] | < 1000 | > 98
12 | O=C(O)Cn1nnc(-c2ccc(F)c3c(C(=O)C(=O)N4CCN(C(=O)c5ccccc5)CC4)c[nH]c23)n1 [Example 70] | < 1000 | > 98
13 | O=C(C(=O)N1CCN(C(=O)c2ccccc2)CC1)c1c[nH]c2c(-c3nnco3)ccc(F)c12 [Example 93] | < 1000 | 
14 | CONC(=O)c1ccc(F)c2c(C(=O)C(=O)N3CCN(C(=O)c4ccccc4)CC3)c[nH]c12 [Example 46] | < 1000 | > 98
15 | O=C(C(=O)N1CCN(C(=O)c2ccccc2)CC1)c1c[nH]c2c(-c3cnco3)ccc(F)c12 [Example 17] | < 1000 | > 98
16 | NC(=O)Cn1nnc(-c2ccc(F)c3c(C(=O)C(=O)N4CCN(C(=O)c5ccccc5)CC4)c[nH]c23)n1 [Example 104] | < 1000 | 
17 | C[C@@H]1CN(C(=O)c2ccccc2)CCN1C(=O)C(=O)c1c[nH]c2c(-c3noc(NC4CCCC4)n3)ccc(F)c12 [Example 162] | < 1000 | 

Row | SMILES | EC50 [nM] | inhibition at 10 µM [%]
18 | O=C(C(=O)N1CCN(C(=O)c2ccccc2)CC1)c1c[nH]c2c(-c3nnn(CCO)n3)ccc(F)c12 [Example 112] | < 1000 | 
19 | CCCn1nnc(-c2ccc(F)c3c(C(=O)C(=O)N4CCN(C(=O)c5ccccc5)CC4)c[nH]c23)n1 [Example 24] | < 1000 | > 98
20 | O=C(C(=O)N1CCN(C(=O)c2ccccn2)CC1)c1c[nH]c2c(-c3nnn(C(F)F)n3)ccc(F)c12 [Example 149] | < 1000 | 
21 | CSc1ccccc1-c1ccc(F)c2c(C(=O)C(=O)N3CCN(C(=O)c4ccccc4)CC3)c[nH]c12 [Example 2] | < 1000 | > 98
22 | COc1nc(-c2ccc(F)c3c(C(=O)C(=O)N4CCN(C(=O)c5ccccc5)CC4)c[nH]c23)no1 [Example 29] | < 1000 | > 98
23 | C[C@@H]1CN(C(=O)c2ccccc2)CCN1C(=O)C(=O)c1c[nH]c2c(-c3noc(NCCN4CCOCC4)n3)ccc(F)c12 [Example 159] | < 1000 | 
24 | O=C(C(=O)N1CCN(C(=O)c2ccccn2)CC1)c1c[nH]c2c(-c3ncon3)ccc(F)c12 [Example 191] | < 1000 | 
25 | O=C(NCc1ccco1)c1ccc(F)c2c(C(=O)C(=O)N3CCN(C(=O)c4ccccc4)CC3)c[nH]c12 [Example 50] | < 1000 | > 98
26 | CC1CN(C(=O)C(=O)c2c[nH]c3c(-c4ncon4)ccc(F)c23)CCN1C(=O)c1ccccc1 (centres unmarked) [Example 123] | < 1000 | 
27 | O=C(C(=O)N1CCN(C(=O)c2ccccc2)CC1)c1c[nH]c2c(-c3ncon3)ccc(F)c12 [Example 79] | < 1000 | > 98
28 | COC(=O)Cn1nnc(-c2ccc(F)c3c(C(=O)C(=O)N4CCN(C(=O)c5ccccc5)CC4)c[nH]c23)n1 [Example 22] | < 1000 | > 98
29 | O=C(C(=O)N1CCN(C(=O)c2ccccc2)CC1)c1c[nH]c2c(-c3ccccn3)ccc(F)c12 [Example 5] | < 1000 | > 98
30 | COc1ccc(C(N)=O)c2[nH]cc(C(=O)C(=O)N3CCN(C(=O)c4ccccc4)CC3)c12 [Example 148] | < 1000 | 
31 | COc1ccc(-c2cc3ccccc3s2)c2[nH]cc(C(=O)C(=O)N3CCN(C(=O)c4ccccc4)CC3)c12 [Example 19] | < 1000 | > 98
32 | C[C@@H]1CN(C(=O)c2ccccc2)CCN1C(=O)C(=O)c1c[nH]c2c(C(=O)N3CCN(Cc4ccccc4)CC3)cccc12 [Example 68] | < 1000 | > 98
33 | COc1ccc(-c2ncon2)c2[nH]cc(C(=O)C(=O)N3CCN(C(=O)c4ccccc4)CC3)c12 [Example 126] | < 1000 | 
34 | O=C(C(=O)N1CCN(C(=O)c2ccccc2)CC1)c1c[nH]c2c(-c3ccsc3)ccc(F)c12 [Example 13] | < 1000 | > 98
